These are literature values, as cited in patent publication US20070135390A1, “Phosphate derivatives” (priority 2003, published 2007).

For this data set the following is noted: printed as in vitro use.

Turning to “Phenol, 2,6-bis(1-methylethyl)-, dihydrogen phosphate (9CI) [propofol phosphate]”, the induction of anesthesia result was “does not however induce anesthesia”.
